Results on three compounds are retold here after ChEMBL document CHEMBL5120909, “Reshaping an Acyclic Nucleoside Phosphonate into a Selective Anti-hepatitis B Virus Compound” (J Med Chem, 2022).

The structures appear in SMILES notation.

Series [1] has as its system Hepatitis B virus. Nature of the series: Antiviral activity against wild type HBV infected in human HepG2 2.2.15 cells assessed as reduction in viral replication by DNA HYB (Vision)/neutral red (Tox) assay. The note with it: HepG2.2.15. The format is functional, organism-based.
The test system of series [2] is Human immunodeficiency virus 2. Nature of the series: Anti-HIV activity against wild type HIV-2 ROD infected in human MT4 cells assessed as inhibition of HIV-induced cytopathic effect measured after 5 days by MTT assay. It is filed as functional, organism-based. The note with it: Human immunodeficiency virus 2, ROD, MT4, 120 h.
The test system of series [3] is HepG2 2.2.15. Nature of the series: Cytotoxicity against human HepG2.2.15 cells assessed as reduction in cell viability by neutral red uptake assay. The format is functional.
Series [4] has as its system Hepatitis B virus. Nature of the series: Antiviral activity against wild type HBV infected in human HepG2 2.2.15 cells assessed as reduction in viral replication by DNA HYB (RI)/neutral red (Tox) assay. The note with it: HepG2.2.15. It is filed as functional, organism-based.
Series [5] is described as follows: Selectivity index, ratio of CC50 cytotoxicity against human HepG2.2.15 cells assessed as reduction in cell viability to EC50 for antiviral activity against wild type HBV infected in human HepG2 2.2.15 cells assessed as reduction in viral replication by DNA HYB (RI)/neutral red (Tox) assay. The format is toxicity, cell-based. To be noted: read-out: Selectivity Index.

Series [6] is described as follows: Selectivity index, ratio of CC50 for cytotoxicity against human MT4 cells assessed as reduction in cell viability by MTT assay to EC50 for anti-HIV activity against wild type HIV-1 IIIB infected in human MT4 cells assessed as inhibition of HIV-induced cytopathic effect measured after 5 days by MTT assay. The note with it: read-out: Ratio CC50/EC50. It is filed as toxicity, cell-based.

Series [7] concerns HepG2 2.2.15. Nature of the series: Cytotoxicity against human HepG2.2.15 cells assessed as reduction in cell viability incubated for 1 to 4 hrs by MTS uptake assay. It is filed as functional. To be noted: time 1-4 hrs.
Series [8] in a line: Selectivity index, ratio of CC50 cytotoxicity against human HepG2.2.15 cells assessed as reduction in cell viability to EC50 for antiviral activity against wild type HBV infected in human HepG2 2.2.15 cells assessed as reduction in viral replication by DNA HYB (Vision)/neutral red (Tox) assay. The format is toxicity, cell-based. To be noted: read-out: Selectivity Index.
The nature of series [9]: Selectivity index, ratio of CC50 for cytotoxicity against human MT4 cells assessed as reduction in cell viability by MTT assay to EC50 for anti-HIV activity against wild type HIV-2 ROD infected in human MT4 cells assessed as inhibition of HIV-induced cytopathic effect measured after 5 days by MTT assay. The format is toxicity, cell-based. To be noted: read-out: Ratio CC50/EC50.

Series [10] concerns HepG2 2.2.15. Nature of the series: Cytotoxicity against human HepG2.2.15 cells assessed as reduction in cell viability. It is filed as functional.
In series [11] the test system is Hepatitis B virus. Nature of the series: Antiviral activity against wild type HBV infected in human HepG2 2.2.15 cells assessed as reduction in viral replication pre incubated for 3 days followed by replacement with fresh compounds for another 3 days prior to pronase treatment by RT-qPCR analysis. It is filed as functional, organism-based, HepG2.2.15. The note with it: for EC50: HepG2.2.15; for EC90: HepG2.2.15, 144 h, time 6 day.

Series [12] is described as follows: Cytotoxicity against human MT4 cells assessed as reduction in cell viability by MTT assay. The format is toxicity, cell-based.
For series [13], the system named is Human immunodeficiency virus 1. Nature of the series: Anti-HIV activity against wild type HIV-1 IIIB infected in human MT4 cells assessed as inhibition of HIV-induced cytopathic effect measured after 5 days by MTT assay. The format is functional, organism-based. To be noted: Human immunodeficiency virus 1, IIIB, MT4, 120 h.
Series [14] in a line: Cytotoxicity against human HFF cells infected with HCMV AD-169 virus assessed as reduction in cell viability by cell titer-glo assay. It is filed as toxicity, cell-based.
Series [15] can be described thus: Selectivity index, ratio of CC50 for cytotoxicity against human HFF cells infected with VZV Ellen virus assessed as reduction in cell viability by cell titer-glo assay to EC50 for antiviral activity against VZV Ellen infected in HFF cells assessed as inhibition of virus-induced cytopathic effect measured after 14 days. It is filed as toxicity, cell-based. The note with it: read-out: Ratio CC50/EC50.

Series [16] can be described thus: Cytotoxicity against human HFF cells infected with VZV Ellen virus assessed as reduction in cell viability by cell titer-glo assay. The format is toxicity, cell-based.
A short description of series [17]: Selectivity index, ratio of CC50 for cytotoxicity against human HFF cells infected with HCMV AD-169 virus assessed as reduction in cell viability by cell titer-glo assay to EC50 for antiviral activity against HCMV AD-169 infected in HFF cells assessed as inhibition of virus-induced cytopathic effect measured after 14 days. It is filed as toxicity, cell-based. To be noted: read-out: Ratio CC50/EC50.

The test system of the next series is Human alphaherpesvirus 3. Nature of the series: Antiviral activity against VZV Ellen infected in HFF cells assessed as reduction in viral replication measured after 14 days. The format is functional, organism-based. To be noted: Human alphaherpesvirus 3, Ellen, 336 h; for EC90: time 14 day.
The next series has as its system Human betaherpesvirus 5. Nature of the series: Antiviral activity against HCMV AD-169 infected in HFF cells assessed as reduction in viral replication measured after 14 days. The format is functional, organism-based. The note with it: Human betaherpesvirus 5, AD-169, HFF, 336 h; for EC90: time 14 day.

On to `Nc1ccn([C@@H]2CS[C@H](CO)O2)c(=O)n1` [LAMIVUDINE], for which the EC50 in the series on Hepatitis B virus [1] was found to be 0.04 µM; in [2], 9.9 µM; with Hepatitis B virus [4] it was 0.13 µM; with Hepatitis B virus [11] it was 0.04 µM; in series [13], 2.53 µM. Also, the values for the EC90 in the series with Hepatitis B virus [1], in the series on Hepatitis B virus [4] and with Hepatitis B virus [11] were 0.12 µM, 0.35 µM and 0.13 µM, respectively. Further, the CC50 in the series with HepG2 2.2.15 [3] is 2120 µM; with HepG2 2.2.15 [7] it was over 2 µM; with HepG2 2.2.15 [10], 2120 µM; in [12] it was over 87.2 µM. In addition, the selectivity ratio was 16200 in series [5] and 57400 in series [8]. The selectivity ratio at 120 h was over 24 in series [6] and over 9 in series [9].

Regarding `C#CC(CO)(Cn1cnc2c(=O)[nH]c(N)nc21)OCP(=O)(O)O` (stereo not given), the EC50 was determined as 0.31 µM with Hepatitis B virus [1]; 1.28 µM in series [2]; 0.54 µM in the series on Hepatitis B virus [4]; 116 µM with Human alphaherpesvirus 3; 0.37 µM in the series with Hepatitis B virus [11]; 14.4 µM with Human betaherpesvirus 5. The EC50 in [13] was found to be 3.73 µM. Further, the EC90 in the series on Hepatitis B virus [1] is 0.8 µM; in the series with Hepatitis B virus [4], 1.8 µM; in the series with Human alphaherpesvirus 3, over 150 µM; in the series with Hepatitis B virus [11], 0.83 µM; in the series with Human betaherpesvirus 5, over 150 µM. Moreover, the 50% cytotoxic concentration (CC50) in the series on HepG2 2.2.15 [3] is over 100 µM; in [14], over 150 µM; in series [16], over 150 µM; with HepG2 2.2.15 [10], over 100 µM; in series [12] it was over 364 µM. In addition, the selectivity ratio in series [5] is over 185; in series [8] it was over 322. Besides, the selectivity ratio at 336 h in series [15] was over 1; in [17], over 10. Besides, the selectivity ratio at 120 h in [6] is over 97; in series [9], over 287.

Consider `C#CC(CO)(Cn1cc(C)c(=O)[nH]c1=O)OCP(=O)(O)O` (racemic), for which the EC50 in series [2] is over 393 µM; in the series with Human alphaherpesvirus 3, 27.1 µM; in the series on Hepatitis B virus [11], over 100 µM; in the series on Human betaherpesvirus 5, 30 µM; in series [13], over 393 µM. Besides, the CC50 with HepG2 2.2.15 [3] is over 100 µM; in [14], 140 µM; in series [16], 139 µM; in [12], over 393 µM. The selectivity ratio at 336 h is 5 in series [15] and under 5 in series [17]. Also, the selectivity ratio at 120 h in series [6] and in [9] was 1 in each case. The EC90 with Human alphaherpesvirus 3 was over 30 µM; in the series on Hepatitis B virus [11], over 100 µM; in the series with Human betaherpesvirus 5, over 30 µM.
